Like-named read-outs stand apart in the source and are kept apart here.
Experiments:
[1] = rcm bond, DCM
[2] = molecular target: CVF-Bb complex (Homo sapiens (Human), UniProt P00751); experiment: biochemical; assay type: biochemical; details: read-out: IC50
Description: CVF-Bb complex, prepared from purified cobra venom factor, (3 nM) is incubated with a compound of the disclosure at various concentrations for 10 minutes at room temperature in PBS (pH 7.4) containing 10 mM MgCl2 and 0.05% (w/v) CHAPS. Human Complement C3 substrate is added to a final concentration of 1 μM. After 1 hour incubation at room temperature, the enzyme reaction is stopped by addition of a cocktail of concentrated pan-protease inhibitors. The product of the reaction, C3a, is quantified by means of an enzyme-linked-immunosorbent assay and/or denaturing gel electrophoresis (SDS-PAGE). IC50 values are calculated from percentage of inhibition of CVF-Bb activity as a function of test compound concentration.

Question: With `C=CCCCOc1cc(Br)ccc1[C@@H]1C[C@@H](O)CCN1C(=O)OCc1ccccc1` as the molecule, how does the ring closure, isolated yield ([1]; the molecule shown is the open-chain precursor, 13-membered ring, Grubbs I (5 mol%), 1.75 mM, 25.0 °C) read?
Answer: 76.4%

Question: With `CC(C)(C)OC(=O)N1CCC2(O)CC=CCCCCOc3cc(Br)ccc3[C@@H]1C2` as the molecule, how does the ring closure, isolated yield ([1]; from C=CCCCCOc1cc(Br)ccc1[C@@H]1CC(O)(CC=C)CCN1C(=O)OC(C)(C)C, 13-membered ring, Grubbs I, 2.5 mM, 25.0 °C, 48.0 h) read?
Answer: 65.9%

Question: With `COC(=O)c1ccc2c(c1)OCCC=CCO[C@H]1CCN(C(=O)OC(C)(C)C)[C@H]2C1` as the molecule, how does the ring closure, isolated yield ([1]; from C=CCCOc1cc(C(=O)OC)ccc1[C@@H]1C[C@@H](OCC=C)CCN1C(=O)OC(C)(C)C, 12-membered ring, Grubbs I (20 mol%), 2.22 mM, 25.0 °C, 18.0 h) read?
Answer: 61.9%

Question: With `COC(=O)c1ccc2c(c1)OCCCC=CCO[C@H]1CCN(C(=O)OC(C)(C)C)[C@H]2C1` as the molecule, how does the ring closure, isolated yield ([1]; from C=CCCCOc1cc(C(=O)OC)ccc1[C@@H]1C[C@@H](OCC=C)CCN1C(=O)OC(C)(C)C, 13-membered ring, Grubbs I (20 mol%), 2.22 mM, 25.0 °C, 18.0 h) read?
Answer: 68.8%

Question: With `COC(=O)c1ccc2c(c1)OCCCCC=CCO[C@H]1CCN(C(=O)OC(C)(C)C)[C@H]2C1` as the molecule, how does the ring closure, isolated yield ([1]; from C=CCCCCOc1cc(C(=O)OC)ccc1[C@@H]1C[C@@H](OCC=C)CCN1C(=O)OC(C)(C)C, 14-membered ring, Grubbs I (20 mol%), 2.15 mM, 25.0 °C, 18.0 h) read?
Answer: 72.4%

Question: And the ring closure, isolated yield ([1]; from C=CCCCCOc1cc(C(=O)OC)ccc1[C@@H]1C[C@@H](OCC=C)CCN1C(=O)OC(C)(C)C, 14-membered ring, Grubbs I (20 mol%), 2.17 mM, 25.0 °C, 18.0 h)?
Answer: 83.2%

Question: With `COC(=O)c1ccc2c3cc(ccc13)OCC=CCO[C@H]1CCN(C(=O)OC(C)(C)C)[C@H]2C1` as the molecule, how does the ring closure, isolated yield ([1]; from C=CCOc1ccc2c(C(=O)OC)ccc([C@@H]3C[C@@H](OCC=C)CCN3C(=O)OC(C)(C)C)c2c1, 13-membered ring, Grubbs I, 2.1 mM, 25.0 °C, 18.0 h) read?
Answer: 67.1%

Question: For `COC(=O)c1ccc2c3cc(ccc13)OCCC=CCO[C@H]1CCN(C(=O)OC(C)(C)C)[C@H]2C1`, which ring closure, isolated yield ([1]; from C=CCCOc1ccc2c(C(=O)OC)ccc([C@@H]3C[C@@H](OCC=C)CCN3C(=O)OC(C)(C)C)c2c1, 14-membered ring, Grubbs I, 3.2 mM, 16.0 h) is on record?
Answer: 33.4%

Question: For `COC(=O)c1ccc2c3cc(ccc13)OCCCC=CCO[C@@H]1CCN(C(=O)OC(C)(C)C)[C@@H]2C1`, which ring closure, isolated yield ([1]; from C=CCCCOc1ccc2c(C(=O)OC)ccc([C@H]3C[C@H](OCC=C)CCN3C(=O)OC(C)(C)C)c2c1, 15-membered ring, Grubbs I, 1.96 mM, 25.0 °C, 18.0 h) is on record?
Answer: 74%

Question: For `COC(=O)c1ccc2c3cc(ccc13)OCCCC=CCO[C@H]1CCN(C(=O)OC(C)(C)C)[C@H]2C1`, which ring closure, isolated yield ([1]; from C=CCCCOc1ccc2c(C(=O)OC)ccc([C@@H]3C[C@@H](OCC=C)CCN3C(=O)OC(C)(C)C)c2c1, 15-membered ring, Grubbs I, 1.95 mM, 25.0 °C, 18.0 h) is on record?
Answer: 75.3%

Question: What about the ring closure, isolated yield ([1]; from C=CCCCOc1ccc2c(C(=O)OC)ccc([C@@H]3C[C@@H](OCC=C)CCN3C(=O)OC(C)(C)C)c2c1, 15-membered ring, Grubbs I, 2.0 mM, 25.0 °C, 18.0 h) of the same molecule?
Answer: 22.7%

Question: For `COc1cc(C)c2[nH]ccc2c1CN1CC[C@H]2C[C@H]1c1ccc(C(=O)NS(=O)(=O)C(C)C)cc1OCCCCCO2` [Ex. 66, (1^2S,1^4S)—N-(isopropylsulfonyl)-1^1-((5-methoxy-7-methyl-1H-indol-4-yl)methyl)-3,9-dioxa-1(2,4)-piperidina-2(1,2)-benzenacyclononaphane-2^4-carboxamide], which IC50 [2] is on record?
Answer: 411 nM

Question: With `COc1cc(C)c2[nH]ccc2c1CN1CC[C@H]2C[C@H]1c1ccc(C(=O)NS(=O)(=O)C3(C)CC3)cc1OCCCCCO2` [Ex. 67, (1^2S,1^4S)-1^1-((5-methoxy-7-methyl-1H-indol-4-yl)methyl)-N-((1-methylcyclopropyl)sulfonyl)-3,9-dioxa-1(2,4)-piperidina-2(1,2)-benzenacyclononaphane-2^4-carboxamide] as the molecule, how does the IC50 [2] read?
Answer: 330 nM

Question: Which IC50 [2] does the source give for `COc1cc(C)c2[nH]ccc2c1CN1CC[C@H]2C[C@H]1c1ccc(C(=O)NS(C)(=O)=O)cc1/C=C\CCCCCO2` [Ex. 68, (1^2S,1^4S,Z)-1^1-((5-methoxy-7-methyl-1H-indol-4-yl)methyl) —N-(methylsulfonyl)-10-oxa-1(2,4)-piperidina-2(1,2)-benzenacyclodecaphan-3-ene-24-carboxamide] here?
Answer: 674 nM

Question: Which IC50 [2] does the source give for `COc1cc(C)c2[nH]ccc2c1CN1CC[C@H]2C[C@H]1c1ccc(C(=O)NS(C)(=O)=O)cc1/C=C/CCCCCO2` [Ex. 69, (1^2S,1^4S,E)-1^1-((5-methoxy-7-methyl-1H-indol-4-yl)methyl)-N-(methylsulfonyl)-10-oxa-1(2,4)-piperidina-2(1,2)-benzenacyclodecaphan-3-ene-2^4-carboxamide] here?
Answer: 581 nM

Question: With `COc1cc(C)c2[nH]ccc2c1CN1CC[C@H]2C[C@H]1c1ccc(C(=O)NS(=O)(=O)c3ccccc3)cc1OCCCCCO2` [Ex. 70, (1^2S,1^4S)-1^1-((5-methoxy-7-methyl-1H-indol-4-yl)methyl)-N-(phenylsulfonyl)-3,9-dioxa-1(2,4)-piperidina-2(1,2)-benzenacyclononaphane-2^4-carboxamide] as the molecule, how does the IC50 [2] read?
Answer: 543 nM

Question: Which IC50 [2] does the source give for `COc1cc(C)c2[nH]ccc2c1CN1CC[C@H]2C[C@H]1c1ccc(C(=O)NS(C)(=O)=O)cc1CCCCCCCO2` [Ex. 71, (1^2S,1^4S)-1^1-((5-methoxy-7-methyl-1H-indol-4-yl)methyl)-N-(methylsulfonyl)-10-oxa-1(2,4)-piperidina-2(1,2)-benzenacyclodecaphane-2^4-carboxamide] here?
Answer: 258 nM

Question: With `COc1cc(C)c2[nH]ccc2c1CN1CC[C@H]2C[C@H]1c1ccc(C(=O)O)cc1CCCCCCCCCO2` [Ex. 72, (1^2S,1^4S)-1^1-((5-methoxy-7-methyl-1H-indol-4-yl)methyl)-12-oxa-1(2,4)-piperidina-2(1,2)-benzenacyclododecaphane-2^4-carboxylic acid] as the molecule, how does the IC50 [2] read?
Answer: 129 nM

Question: Which IC50 [2] does the source give for `COc1cc(C)c2[nH]ccc2c1CN1CC[C@H]2C[C@H]1c1ccc(C(=O)O)cc1/C=C/CCCCCCCO2` [Ex. 73, (1^2S,1^4S,Z)-1^1-((5-methoxy-7-methyl-1H-indol-4-yl)methyl)-12-oxa-1(2,4)-piperidina-2(1,2)-benzenacyclododecaphan-3-ene-2^4-carboxylic acid] here?
Answer: 271 nM

Question: Which IC50 [2] does the source give for `COc1cc(C)c2[nH]ccc2c1CN1CC[C@H]2C[C@H]1c1ccc(-c3nnn[nH]3)cc1OCCCCCCO2` [Ex. 74, (1^2S,1^4S)-1^1-((5-methoxy-7-methyl-1H-indol-4-yl)methyl)-2^4-(1H-tetrazol-5-yl)-3,10-dioxa-1(2,4)-piperidina-2(1,2)-benzenacyclodecaphane] here?
Answer: 1250 nM

Question: Which IC50 [2] does the source give for `COc1cc(C)c2[nH]ccc2c1CN1CC[C@H]2C[C@H]1c1ccc(C(=O)O)c3ccc(cc13)OC/C=C\CO2` [Ex. 75, (1^2S,1^4S,Z)-1′-((5-methoxy-7-methyl-1H-indol-4-yl)methyl)-3,8-dioxa-1(2,4)-piperidina-2(1,7)-naphthalenacyclooctaphan-5-ene-2^4-carboxylic acid] here?
Answer: 352 nM

Question: For `COc1cc(C)c2[nH]ccc2c1CN1CC[C@H]2C[C@H]1c1ccc(C(=O)O)c3ccc(cc13)OCC/C=C/CO2` [Ex. 76, (1^2S,1^4S)-1^1-((5-methoxy-7-methyl-1H-indol-4-yl)methyl)-3,9-dioxa-1(2,4)-piperidina-2(1,7)-naphthalenacyclononaphane-2^4-carboxylic acid], which IC50 [2] is on record?
Answer: 251 nM

Question: For `COc1cc(C)c2[nH]ccc2c1CN1CC[C@@H]2CCCCCCCOc3cc(C(=O)O)ccc3[C@@H]1C2` [Ex. 77, (1^2S,1^4S)-1^1-((5-methoxy-7-methyl-1H-indol-4-yl)methyl)-3-oxa-1(2,4)-piperidina-2(1,2)-benzenacyclodecaphane-2^4-carboxylic acid], which IC50 [2] is on record?
Answer: 85.6 nM

Question: Which IC50 [2] does the source give for `COc1cc(C)c2[nH]ccc2c1CN1CC[C@H]2CCCCCCCOc3cc(C(=O)O)ccc3[C@@H]1C2` [Ex. 78, (1^2S,1^4R)-1^1-((5-methoxy-7-methyl-1H-indol-4-yl)methyl)-3-oxa-1(2,4)-piperidina-2(1,2)-benzenacyclodecaphane-2^4-carboxylic acid] here?
Answer: 731 nM

Question: For `CNS(=O)(=O)c1ccc2c(c1)OCCCCCCO[C@H]1CCN(Cc3c(OC)cc(C)c4[nH]ccc34)[C@H]2C1` [Ex. 79, (1^2S,1^4S)-1^1-((5-methoxy-7-methyl-1H-indol-4-yl)methyl)-N-methyl-3,10-dioxa-1(2,4)-piperidina-2(1,2)-benzenacyclodecaphane-2^4-sulfonamide], which IC50 [2] is on record?
Answer: > 10000 nM

Question: For “(1^2S,1^4S)-N-(ethylsulfonyl)-1^1-((5-methoxy-7- methyl-1H-indol-4-yl)methyl)-3,10-dioxa- 1(2,4)-piperidina-2(1,2)- benzenacyclodecaphane-2^4-carboxamide [Ex. 45]”, which IC50 [2] is on record?
Answer: 396 nM

Question: For “(1^2S,1^4S,E)-1^1-((5-methoxy-7-methyl-1H-indol-4-yl)methyl)-3,10-dioxa-1(2,4)-piperidina-2(1,7)-naphthalenacyclodecaphan-7-ene-2^4-carboxylic acid [Ex. 53]”, which IC50 [2] is on record?
Answer: > 10000 nM

From patent publication US20240182503A1, “MACROCYCLE COMPLEMENT FACTOR B INHIBITORS” (priority 2021, published 2024)
